Measured values: patent publication US11707442B2, “Antibacterial and antifungal compounds” (The General Hospital Corporation, priority 2015, dated 2023)
In brackets after ≈: the same amount, converted by molar mass. Like-named read-outs stand apart in the source and are kept apart here.

Assays:
[1] = system: K. pneumonia WGLW2; experiment: MIC, broth microdilution; format: cell-based, Klebsiella pneumoniae
Excerpt: (§1) Bacterial strains and growth conditions and persister isolation: methicillin-resistant S. aureus (MRSA) strain MW2 BAA-1707, vancomycin-resistant S. aureus strain VRS 1, 11 clinical S. aureus isolates, 8 clinical Enterococcus faecium isolates, Klebsiella pneumoniae WGLW2 (BEI Resources, Manassas, Va., USA), Acinetobacter baumannii ATCC 17978, Pseudomonas aeruginosa PA14, and Enterobacter aerogenes ATCC 13048 were used to test antimicrobial activity (See Table 1a). S. aureus and E. faecium strains were grown in tryptic soy broth (TSB) (BD, Franklin Lakes, N.J., USA) or brain-heart infusion (BHI) broth (BD, Franklin Lakes, N.J., USA), respectively at 37° C. at 225 rpm. K. pneumoniae, A. baumannii, P. aeruginosa, and E. aerogenes were grown in Luria Bertani (LB) broth (BD, Franklin Lakes, N.J., USA).
(§2) To test the bacterial MICs for compounds described herein, the total volume in each well was 100 μl of test compounds and bacterial cells in MH broth. […] The bacterial concentration was adjusted to an initial OD600 of 0.03. After incubation at 35° C. for 18 hrs, the absorbance was measured at 595 nm in accordance with CLSI document M07-A8. The MICs of antibiotics were determined by the standard microdilution method recommended by the Clinical and Laboratory Standards Institute.

[2] = system: A. baumannii; experiment: MIC, broth microdilution; format: cell-based, Acinetobacter baumannii
Excerpt: as §1, §2

[3] = system: S. aureus MW2 (MRSA) in neutropenic mouse thigh; details: previous study (Conlon 2013); cited from earlier work
[4] = system: S. aureus; experiment: Minimal inhibitory concentration (MIC), broth microdilution; format: cell-based, Staphylococcus aureus
Excerpt: as §1, §2

[5] = system: E. faecium; experiment: MIC, broth microdilution; format: cell-based, Enterococcus faecium; details: for MIC: Enterococcus faecium
Excerpt: as §1, §2

[6] = system: P. aeruginosa; experiment: MIC, broth microdilution; format: cell-based, Pseudomonas aeruginosa
Excerpt: as §1, §2

[7] = system: E. aerogenes ATCC 13048; experiment: MIC, broth microdilution; format: cell-based, Enterobacter aerogenes
Excerpt: as §1, §2

[8] = system: S. aureus persister cells (stationary phase); experiment: Persister killing assay; format: cell-based, Staphylococcus aureus; details: 4 μg/ml CD437 or CD1530 or 10 μg/ml gentamicin alone
Procedure: Persister killing assay. […] Persister cells of these 13 S. aureus strains were developed by growing cultures overnight to stationary phase at 37° C. at 225 rpm. The overnight cultures were washed three times with PBS and diluted to ˜10^7 CFU/ml with the same buffer, which is the same concentration as used in the killing kinetics assay described herein. 1 ml of the persister suspension containing appropriate concentrations of antibiotics was added to the wells of a 2 ml deep well assay block (Corning Costar 3960) and incubated at 37° C., with shaking at 225 rpm. At specific times, 50 μl samples were removed, serially diluted and spot-plated on TSA plates to enumerate the number of live cells. These experiments were conducted in triplicate.

## CN[C@H](CC(C)C)C(=O)N[C@H]1C(=O)N[C@@H](CC(N)=O)C(=O)N[C@H]2C(=O)N[C@H]3C(=O)N[C@H](C(=O)N[C@H](C(=O)O)c4cc(O)cc(O)c4-c4cc3ccc4O)[C@H](O)c3ccc(c(Cl)c3)Oc3cc2cc(c3O[C@@H]2O[C@H](CO)[C@@H](O)[C@H](O)[C@H]2O[C@H]2C[C@](C)(N)[C@H](O)[C@H](C)O2)Oc2ccc(cc2Cl)[C@H]1O [Vancomycin, vancomycin]
[1]; Klebsiella pneumoniae, WGLW2, read-out: Minimum inhibitory concentration
  MIC: > 64 µg/mL
[2]; Acinetobacter baumannii, ATCC17978, read-out: Minimum inhibitory concentration
  MIC: > 64 µg/mL
[3]
  reduction of MRSA CFUs in the deep-seated mouse thigh infection model: unable to significantly reduce
[4]; Staphylococcus aureus, S. aureus MW2 mutant SP1-8 (graS)
  MIC: 0.5 µg/mL (≈ 0.345 µM)
[4]; Staphylococcus aureus, S. aureus MW2 mutant SP1-48 (graS, manA)
  MIC: 0.5 µg/mL (≈ 0.345 µM)
[4]; Staphylococcus aureus, S. aureus MW2 mutant SP1-74 (graS, manA, MW2474)
  MIC: 0.5 µg/mL (≈ 0.345 µM)
[4]; Staphylococcus aureus, S. aureus MW2 mutant SP1-100 (graS, manA, MW2474)
  MIC: 0.5 µg/mL (≈ 0.345 µM)
[4]; Staphylococcus aureus, S. aureus MW2 mutant SP2-13 (yjbH)
  MIC: 1 µg/mL (≈ 0.69 µM)
[4]; Staphylococcus aureus, S. aureus MW2 mutant SP2-52 (yjbH, dltB)
  MIC: 0.5 µg/mL (≈ 0.345 µM)
[4]; Staphylococcus aureus, S. aureus MW2 mutant SP2-59 (yjbH, dltB, manA)
  MIC: 0.5 µg/mL (≈ 0.345 µM)
[4]; Staphylococcus aureus, S. aureus MW2 mutant SP2-65 (yjbH, dltB, manA, MW1685)
  MIC: 0.5 µg/mL (≈ 0.345 µM)
[4]; Staphylococcus aureus, S. aureus MW2 mutant SP2-100 (yjbH dltB, manA, MW1685)
  MIC: 0.5 µg/mL (≈ 0.345 µM)
[4]; Staphylococcus aureus, S. aureus MW2 serial passage culture SP1-1 (no mutated gene)
  MIC: 1 µg/mL (≈ 0.69 µM)
[4]; Staphylococcus aureus, S. aureus MW2 serial passage culture SP2-1 (no mutated gene)
  MIC: 1 µg/mL (≈ 0.69 µM)
[4]; Staphylococcus aureus, read-out: Drug MIC, Staphylococcus aureus clinical isolate BF1 (Table 5)
  MIC: 2 µg/mL (≈ 1.38 µM)
[4]; Staphylococcus aureus, read-out: Drug MIC, Staphylococcus aureus clinical isolate BF2 (Table 5)
  MIC: 2 µg/mL (≈ 1.38 µM)
[4]; Staphylococcus aureus, read-out: Drug MIC, Staphylococcus aureus clinical isolate BF3 (Table 5)
  MIC: 4 µg/mL (≈ 2.76 µM)
[4]; Staphylococcus aureus, read-out: Drug MIC, Staphylococcus aureus clinical isolate BF4 (Table 5)
  MIC: 2 µg/mL (≈ 1.38 µM)
[4]; Staphylococcus aureus, read-out: Drug MIC, Staphylococcus aureus clinical isolate BF5 (Table 5)
  MIC: 2 µg/mL (≈ 1.38 µM)
[4]; Staphylococcus aureus, read-out: Drug MIC, Staphylococcus aureus clinical isolate BF6 (Table 5)
  MIC: 2 µg/mL (≈ 1.38 µM)
[4]; Staphylococcus aureus, read-out: Drug MIC, Staphylococcus aureus clinical isolate BF7 (Table 5)
  MIC: 2 µg/mL (≈ 1.38 µM)
[4]; Staphylococcus aureus, read-out: Drug MIC, Staphylococcus aureus clinical isolate BF8 (Table 5)
  MIC: 2 µg/mL (≈ 1.38 µM)
[4]; Staphylococcus aureus, read-out: Drug MIC, Staphylococcus aureus clinical isolate BF9 (Table 5)
  MIC: 2 µg/mL (≈ 1.38 µM)
[4]; Staphylococcus aureus, read-out: Drug MIC, Staphylococcus aureus clinical isolate BF10 (Table 5)
  MIC: 2 µg/mL (≈ 1.38 µM)
[4]; Staphylococcus aureus, read-out: Drug MIC, Staphylococcus aureus clinical isolate BF11 (Table 5)
  MIC: 2 µg/mL (≈ 1.38 µM)
[4]; Staphylococcus aureus, read-out: Minimum inhibitory concentration, S. aureus BF1
  MIC: 1 µg/mL (≈ 0.69 µM)
[4]; Staphylococcus aureus, read-out: Minimum inhibitory concentration, S. aureus BF2
  MIC: 1 µg/mL (≈ 0.69 µM)
[4]; Staphylococcus aureus, read-out: Minimum inhibitory concentration, S. aureus BF3
  MIC: 1 µg/mL (≈ 0.69 µM)
[4]; Staphylococcus aureus, read-out: Minimum inhibitory concentration, S. aureus BF4
  MIC: 0.5 µg/mL (≈ 0.345 µM)
[4]; Staphylococcus aureus, read-out: Minimum inhibitory concentration, S. aureus BF5
  MIC: 0.5 µg/mL (≈ 0.345 µM)
[4]; Staphylococcus aureus, read-out: Minimum inhibitory concentration, S. aureus BF6
  MIC: 0.5 µg/mL (≈ 0.345 µM)
[4]; Staphylococcus aureus, read-out: Minimum inhibitory concentration, S. aureus BF7
  MIC: 0.5 µg/mL (≈ 0.345 µM)
[4]; Staphylococcus aureus, read-out: Minimum inhibitory concentration, S. aureus BF8
  MIC: 0.5 µg/mL (≈ 0.345 µM)
[4]; Staphylococcus aureus, read-out: Minimum inhibitory concentration, S. aureus BF9
  MIC: 0.5 µg/mL (≈ 0.345 µM)
[4]; Staphylococcus aureus, read-out: Minimum inhibitory concentration, S. aureus BF10
  MIC: 0.5 µg/mL (≈ 0.345 µM)
[4]; Staphylococcus aureus, read-out: Minimum inhibitory concentration, S. aureus BF11
  MIC: 1 µg/mL (≈ 0.69 µM)
[4]; Staphylococcus aureus, read-out: Minimum inhibitory concentration, S. aureus MW2
  MIC: 1 µg/mL (≈ 0.69 µM)
[4]; Staphylococcus aureus, read-out: Minimum inhibitory concentration, S. aureus VRS1
  MIC: > 64 µg/mL
[5]; read-out: Minimum inhibitory concentration, E. faecium C68
  MIC: 64 µg/mL (≈ 44.2 µM)
[5]; read-out: Minimum inhibitory concentration, E. faecium D14
  MIC: 2 µg/mL (≈ 1.38 µM)
[5]; read-out: Minimum inhibitory concentration, E. faecium D24
  MIC: 1 µg/mL (≈ 0.69 µM)
[5]; read-out: Minimum inhibitory concentration, E. faecium D25
  MIC: 1 µg/mL (≈ 0.69 µM)
[5]; read-out: Minimum inhibitory concentration, E. faecium D29
  MIC: 2 µg/mL (≈ 1.38 µM)
[5]; read-out: Minimum inhibitory concentration, E. faecium E007
  MIC: 1 µg/mL (≈ 0.69 µM)
[5]; read-out: Minimum inhibitory concentration, E. faecium WB213
  MIC: 16 µg/mL (≈ 11 µM)
[5]; read-out: Minimum inhibitory concentration, E. faecium WC176
  MIC: 64 µg/mL (≈ 44.2 µM)
[6]; Pseudomonas aeruginosa, PA14, read-out: Minimum inhibitory concentration
  MIC: > 64 µg/mL
[7]; Klebsiella aerogenes, ATCC13048, read-out: Minimum inhibitory concentration
  MIC: > 64 µg/mL

## gentamicin
[8]
  viability of MW2 persister cells, single agent: did not significantly affect
[1]; K. pneumonia WGLW2
  Minimum inhibitory concentration: 1 µg/mL
[2]; A. baumannii ATCC 17978
  Minimum inhibitory concentration: 1 µg/mL
[3]
  reduction of MRSA CFUs in the deep-seated mouse thigh infection model: unable to significantly reduce
[4]; S. aureus BF1
  Minimum inhibitory concentration: 1 µg/mL
[4]; S. aureus BF2
  Minimum inhibitory concentration: 1 µg/mL
[4]; S. aureus BF3
  Minimum inhibitory concentration: 1 µg/mL
[4]; S. aureus BF4
  Minimum inhibitory concentration: 1 µg/mL
[4]; S. aureus BF5
  Minimum inhibitory concentration: 1 µg/mL
[4]; S. aureus BF6
  Minimum inhibitory concentration: 1 µg/mL
[4]; S. aureus BF7
  Minimum inhibitory concentration: 1 µg/mL
[4]; S. aureus BF8
  Minimum inhibitory concentration: 1 µg/mL
[4]; S. aureus BF9
  Minimum inhibitory concentration: 1 µg/mL
[4]; S. aureus BF10
  Minimum inhibitory concentration: 1 µg/mL
[4]; S. aureus BF11
  Minimum inhibitory concentration: 1 µg/mL
[4]; S. aureus MW2
  Minimum inhibitory concentration: 1 µg/mL
[4]; S. aureus MW2 mutant SP1-8 (graS)
  MIC: 0.25 µg/mL
[4]; S. aureus MW2 mutant SP1-48 (graS, manA)
  MIC: 0.25 µg/mL
[4]; S. aureus MW2 mutant SP1-74 (graS, manA, MW2474)
  MIC: 0.25 µg/mL
[4]; S. aureus MW2 mutant SP1-100 (graS, manA, MW2474)
  MIC: 0.25 µg/mL
[4]; S. aureus MW2 mutant SP2-13 (yjbH)
  MIC: 1 µg/mL
[4]; S. aureus MW2 mutant SP2-52 (yjbH, dltB)
  MIC: 0.25 µg/mL
[4]; S. aureus MW2 mutant SP2-59 (yjbH, dltB, manA)
  MIC: 0.25 µg/mL
[4]; S. aureus MW2 mutant SP2-65 (yjbH, dltB, manA, MW1685)
  MIC: 0.25 µg/mL
[4]; S. aureus MW2 mutant SP2-100 (yjbH dltB, manA, MW1685)
  MIC: 0.25 µg/mL
[4]; S. aureus MW2 serial passage culture SP1-1 (no mutated gene)
  MIC: 1 µg/mL
[4]; S. aureus MW2 serial passage culture SP2-1 (no mutated gene)
  MIC: 1 µg/mL
[4]; S. aureus VRS1
  Minimum inhibitory concentration: >64 µg/mL
[5]; E. faecium C68
  Minimum inhibitory concentration: >64 µg/mL
[5]; E. faecium D14
  Minimum inhibitory concentration: 32 µg/mL
[5]; E. faecium D24
  Minimum inhibitory concentration: >64 µg/mL
[5]; E. faecium D25
  Minimum inhibitory concentration: 32 µg/mL
[5]; E. faecium D29
  Minimum inhibitory concentration: 64 µg/mL
[5]; E. faecium E007
  Minimum inhibitory concentration: >64 µg/mL
[5]; E. faecium WB213
  Minimum inhibitory concentration: 32 µg/mL
[5]; E. faecium WC176
  Minimum inhibitory concentration: 64 µg/mL
[6]; P. aeruginosa PA14
  Minimum inhibitory concentration: 2 µg/mL
[7]; E. aerogenes ATCC 13048
  Minimum inhibitory concentration: 2 µg/mL
